From the OPERA property sets (Mansouri et al. 2018)
Peptide text beside a SMILES is read from it.

O=C(O)COc1ccc(S(=O)(=O)F)cc1
logP: 1.82

O=C(CN1CCCCC1)Nc1ccc(Br)cc1
logP: 3.57

O=Nc1ccccc1
logP: 2.01

CCc1ccc(N)cc1
logP: 1.96

N#Cc1sc2c(=O)c3ccccc3c(=O)c=2sc1C#N
logP: 2.84

CC(=O)NC(=O)C1CCC1
logP: -0.4

CC(=O)C(C)(C)C
logP: 1.2

O=C(c1ccccc1)C(F)(F)F
logP: 2.15

CS(=O)(=O)c1ccc(C(O)C(CO)NC(=O)C(Cl)Cl)cc1 (stereo unspecified)
logP: -0.27

CC(C)C(=O)OCC1CCC(n2cnc3c(=O)[nH]cnc32)O1 (stereo unspecified)
logP: 0.02

CC#N
logP: -0.34

NC(Cc1ccc2ccccc2c1)C(=O)O (stereo unspecified)
logP: -0.15

C=CC1(C)OC(=O)N(c2cc(Cl)cc(Cl)c2)C1=O (stereo unspecified)
logP: 3.1

CCCOC(N)=O
logP: 0.36

Nc1ccnc2c([N+](=O)[O-])cccc12
logP: 1.31

Oc1ccc(Cl)c(Cl)c1Cl
logP: 3.8

CNC(=O)Oc1cc(C)c(C)c(C)c1
logP: 2.66

Nc1ccc(C(=O)Oc2ccccc2Cl)c(O)c1
logP: 3.72

CNC1CC2CCC1c1ccccc12 (stereo unspecified)
logP: 2.68

CC(C)[C@H](C(=O)OC(C#N)c1cccc(Oc2ccccc2)c1)c1ccc(OC(F)F)cc1 (stereo partly specified)
logP: 6.2

c1ccc(-c2ncc[nH]2)cc1
logP: 1.88

CCCCCC1=Nc2cc(Cl)c(S(N)(=O)=O)cc2S(=O)(=O)N1
logP: 2.01

Oc1ccccc1C=Nc1ccccc1
logP: 3.09

O=CNc1ccc(F)cc1
logP: 1.27

Nc1nncs1
logP: -0.57

Cc1ccc(C)[nH]1
logP: 1.47

CC(C)Cc1cc(C(=O)NN)ccn1
logP: 1.02

CNC(=O)Oc1ccc(C(C)=O)cc1
logP: 1.01

CCOC(=O)[C@H](O)[C@@H](O)C(=O)OCC
logP: -0.29

COC(=O)C(C)N(C(=O)Cc1ccccc1)c1c(C)cccc1C (stereo unspecified)
logP: 3.4

O=C(Cc1ccccc1)NC(CO)C(O)c1ccc([N+](=O)[O-])cc1 (stereo unspecified)
logP: 1.52

Brc1ccc(-c2cc3ccccn3c2)cc1
logP: 5.43

CCSC(=O)N(CC(C)C)CC(C)C
logP: 4.15

N#Cc1ccc2[nH]ccc2c1
logP: 2.38

CN(C)c1ccc2c(c1)C(c1ccccc1Cl)=NCC(=O)N2C
logP: 2.72

CC1=CC(=O)c2ccccc2C1=O
logP: 2.2

COc1cc(S(C)=O)ccc1-c1nc2nccnc2[nH]1 (stereo unspecified)
logP: 0.66

COc1cc(C(=O)O)ccc1O
logP: 1.43

Cc1[nH]cnc1CSCCNc1cccc(=O)[nH]1
logP: 0.79

N#Cc1cccc(O)c1
logP: 1.7

CCCCCCCCOC(=O)c1cc(O)c(O)c(O)c1
logP: 3.66

O=[N+]([O-])c1cc[n+]([O-])cc1
logP: -0.55

O=S(=O)(Nc1ccc(-c2ccccc2)cc1)C(F)(F)F
logP: 4.97

O=C(NC(CO)C(O)c1ccc([N+](=O)[O-])cc1)C(F)F (stereo unspecified)
logP: 0.42

CC(=O)NC(Cc1ccccc1)C(N)=O (stereo unspecified)
logP: -0.04

CN(C)C(CSS(=O)(=O)c1ccccc1)CSS(=O)(=O)c1ccccc1
logP: 3.36

CNC(=S)NNc1ccccc1
logP: 1.17

O=[N+]([O-])C=Cc1ccccc1
logP: 2.11

O=C1CC(Sc2ccccn2)N1 (stereo unspecified)
logP: 0.61

COC(=O)C1=CCCN(C)C1
logP: 0.35

CC(=O)[C@@]1(O)CC[C@H]2[C@@H]3C[C@H](C)C4=CC(=O)C=C[C@]4(C)[C@@]3(F)[C@@H](O)C[C@@]21C
logP: 2

COC(=O)C(C)N(C(=O)c1ccco1)c1c(C)cccc1C (stereo unspecified)
logP: 2.61

CC1CC(C)CN(N=O)C1 (stereo unspecified)
logP: 1.53

CC(=O)NCC(=O)N[C@@H](C)C(=O)N[C@H](C(N)=O)C(C)C (Ac-Gly-Ala-Val-NH2)
logP: -1.56

CC(=O)OC1CC(OC2C(O)CC(OC3C(C)OC(OC4CCC5(C)C(CCC6C5CC(O)C5(C)C(C7=CC(=O)OC7)CCC65O)C4)CC3OC(C)=O)OC2C)OC(C)C1O (stereo unspecified)
logP: 2.45

CCCC(C)O (stereo unspecified)
logP: 1.19

O=C(Nc1ccc([N+](=O)[O-])cc1)c1cccnc1
logP: 1.82

NC=O
logP: -1.51

NC(N)=Nc1ccccc1
logP: 0.53

CCOC(=O)NC1=C(N2CC2)C(=O)C(NC(=O)OCC)=C(N2CC2)C1=O
logP: -0.02

C[N+](C)(C)c1ccccc1.[I-]
logP: -2.74

CCOC(=O)c1cc2ccc(CC)cc2nn1
logP: 2.31

CCOc1ccccc1OCC
logP: 2.42

CCCOC/C(=N\c1ccc(Cl)cc1C(F)(F)F)n1ccnc1
logP: 1.4

Nc1ccc2c(n1)[nH]c1ccccc12
logP: 2.6

COc1cccnc1CCCCNc1ncc(Cc2ccc(C)nc2)c(=O)[nH]1
logP: 2.58

COC(=O)C(c1ccccc1)C1CCCCN1 (stereo unspecified)
logD (pH 7.2): 0.2

O=I(=O)c1ccccc1
logP: -1.33

O=C1NCCN1c1ncc([N+](=O)[O-])s1
logP: 0.95

CCC(=O)NN
logP: -1

Cc1cc(C(=O)NNCc2ccccc2)no1
logP: 1.49

CCNNC(=O)COc1ccccc1
logP: 1

CCOC(=O)C(=Cc1ccc(OC)cc1OC)C(C)=O
logP: 2.41

Oc1cccc(Cl)c1Cl
logP: 2.84

OCC(O)c1ccc(O)c(O)c1 (stereo unspecified)
logP: -1.01

Nc1ccccc1N
logP: 0.15

O=C(C(F)(F)F)C(F)(F)F
logP: 1.46

O=[N+]([O-])C=Cc1cccc([N+](=O)[O-])c1
logP: 1.82

O=[N+]([O-])c1ccc(OC2OC(CO)C(OC3OC(CO)C(O)C(O)C3O)C(O)C2O)cc1 (stereo unspecified)
logP: -1.39

CC(C)NC(C)C
logP: 1.4

COc1cccc(N)c1
logP: 0.93

O=C(Nc1ccc(Cl)c(Cl)c1)C1CC1
logP: 3.83

COc1ccnc2c([N+](=O)[O-])cccc12
logP: 1.92

NCCCCCc1ccncc1
logP: 1.4

O=C1CC(OC(=O)c2ccccc2)N1 (stereo unspecified)
logP: 1.37

O=C(O)c1ccccn1
logP: 0.72

COc1cc(CCN)cc(OC)c1Br
logP: 2.03

CN(C)C(N(C)C)=S(I)c1ccc(S(=O)(=O)N(C)C)cc1 (stereo unspecified)
logP: -0.81

CN(C)C(N(C)C)=S(I)c1cccc(Cl)c1Cl (stereo unspecified)
logP: 0.29

CC(=O)c1ccncc1
logP: 0.48

ON=C1C=CC(=NO)C=C1
logP: 1.49

O=C(O)CCCN1C(=O)C=CC1=O
logP: 0.4

COc1cc2c(c(OC)c1O)-c1ccc(OC)c(=O)cc1[C@@H](NC(=O)C(F)(F)F)CC2
logP: 1.67

NS(=O)(=O)c1ccc2c(c1)S(=O)(=O)NC(CC1CCCC1)N2 (stereo unspecified)
logP: 1.24

Nc1nc(N)nc(-c2ccccc2Br)n1
logP: 1.26

NS(=O)(=O)c1ccccc1[N+](=O)[O-]
logP: 0.34

Nc1ccc(C(=O)O)c(Cl)c1
logP: 1.33

NNC(=O)c1ccnc(F)c1
logP: -0.11

CCCCCn1cnc2c(N)ncnc21
logP: 1.79

COC(=O)CCC(=O)OC
logP: 0.35

C=CCC1(C(C)CC)C(=O)NC(=O)NC1=O (stereo unspecified)
logP: 1.47

O=C(O)C(CO)c1ccccc1 (stereo unspecified)
logP: 0.77

CCOC(=O)c1ccoc1
logP: 1.78

CCCCCCCI
logP: 4.7

CN(C)N=Nc1ccc(C(N)=O)cc1
logP: 1.2

O=[N+]([O-])c1ccccc1O
logP: 1.79

C=CCOC(=O)c1ccccc1C(=O)OCC=C
logP: 3.23

O=C(O)C(Cc1ccccc1)n1cccc1 (stereo unspecified)
logP: 2.34

O=C1NC(=O)C(c2cccnc2)N1 (stereo unspecified)
logP: -0.95

O=C1CN=C(c2ccccc2F)c2ccccc2N1
logP: 2.38

CN(C)C(N(C)C)=S(I)c1c(Cl)cccc1Cl (stereo unspecified)
logP: 0

CCCCNC(=O)n1c(NC(=O)OC)nc2ccccc21
logP: 2.12

Cc1cc(C)ncn1
logP: 0.62

CC(=O)c1cccc([N+](=O)[O-])c1
logP: 1.42

CC(C)(N)Cc1ccccc1
logP: 1.9

Cc1cc(NC(N)=O)ccc1Br
logP: 2.49

O=C1CNC(=O)N1
logP: -1.69

Nc1nc(N)nc(-c2cccc(F)c2)n1
logP: 1.73

c1ccc2c(c1)ccc1ncccc12
logP: 3.43

CNC(=O)OCc1c2c(n3c1C(OC(C)=O)CC3)C(=O)C=C(OC)C2=O (stereo unspecified)
logP: 1.19

CN(C)O
logP: -1.15

CC(=O)N[C@H](C(=O)N[C@@H](C)C(=O)N[C@@H](C)C(N)=O)C(C)C
logP: -1.4

Nc1ccc(C(=O)Oc2ccc(Br)cc2)c(O)c1
logP: 3.46

Clc1ccc(-c2ccccc2Cl)c(Cl)c1
logP: 5.76

NC(=O)CCCCc1ccccn1
logP: 0.38

CCN(CC)CCNC(=O)c1cc(C#N)c(N)cc1OC
logP: 1.94

Cc1cscn1
logP: 0.97

OCC(F)(F)F
logP: 0.41

NC(=O)c1cccc(N)c1
logP: -0.33

CC(O)CO (stereo unspecified)
logP: -0.92

CCn1cc(C)c(=O)[nH]c1=O
logP: -0.15

O=CNc1cccc([N+](=O)[O-])c1
logP: 1.4

Nc1ccc(S(=O)(=O)Nc2cnc3ccccc3n2)cc1
logP: 1.68

CN(C)C=C[N+](=O)[O-]
logP: -0.8

Cc1cnc(NS(=O)(=O)c2ccc(N)cc2)c(Br)c1
logP: 1.79

O=c1c2ccccc2oc2ccccc12
logP: 3.39

O=C(O)c1cccc(I)c1
logP: 3.13

O=C(COc1ccccc1)N1CCOCC1
logP: 0.74

CC(=O)Nc1c(C)cc(O)cc1C
logP: 0.31

CN(C)C(=O)c1ccco1
logP: 0.41

Clc1cnc(Cl)c(Cl)c1
logP: 3.11

CN(C)C(=O)c1cccs1
logP: 0.75

OC[C@H]1O[C@@H](Oc2ccc(O)cc2)[C@H](O)[C@@H](O)[C@@H]1O
logP: -1.35

C=C(C)C(=O)OCC(C)O (stereo unspecified)
logP: 0.97

CC1(C)SC2C(NC(=O)C(C(=O)Oc3ccccc3)c3ccccc3)C(=O)N2C1C(=O)O (stereo unspecified)
logP: 3.14

CCNC(=O)NO
logP: -0.76

NCc1ccc([N+](=O)[O-])cc1
logP: 1.06

CCNCCNCC
logP: 0.21

c1ncc2nc[nH]c2n1
logP: -0.37

O=Cc1cccc(C(F)(F)F)c1
logP: 2.47

NC(CCCc1ccccc1)C(=O)O (stereo unspecified)
logP: -0.36

O=[N+]([O-])c1cc(Cl)c(O)c(Cl)c1
logP: 2.94

CCCCCCC1(c2ccncc2)CCC(=O)NC1=O (stereo unspecified)
logP: 2.94

NC(=O)Nc1ccccc1F
logP: 0.88

COC(=O)c1ccc(C(=O)OC)cc1
logP: 2.25

CCc1ccccc1OCC(=O)O
logP: 2.53

Nc1ccc(S(=O)(=O)Nc2ccccc2Cl)cc1
logP: 2

CC(=O)N[C@H](C(=O)N[C@@H](Cc1ccccc1)C(=O)N[C@@H](C)C(N)=O)C(C)C (Ac-Val-Phe-Ala-NH2)
logP: 0.06

O=C1OCc2c(Cl)c(Cl)c(Cl)c(Cl)c21
logP: 3.2

OCC=Cc1ccccc1
logP: 1.95

Cc1[nH]ncc1[N+](=O)[O-]
logP: 1.02
